In ChEMBL document CHEMBL1140646, “Design of a partial PPARdelta agonist” (Bioorg Med Chem Lett, 2007):

Experiments:
[1] = target: T1, Peroxisome proliferator-activated receptor alpha (Homo sapiens) (UniProt Q07869); assay: Agonist activity at human PPARalpha by transactivation assay relative to NNC61-4655; assay type: functional
T1 sequence (whole entry): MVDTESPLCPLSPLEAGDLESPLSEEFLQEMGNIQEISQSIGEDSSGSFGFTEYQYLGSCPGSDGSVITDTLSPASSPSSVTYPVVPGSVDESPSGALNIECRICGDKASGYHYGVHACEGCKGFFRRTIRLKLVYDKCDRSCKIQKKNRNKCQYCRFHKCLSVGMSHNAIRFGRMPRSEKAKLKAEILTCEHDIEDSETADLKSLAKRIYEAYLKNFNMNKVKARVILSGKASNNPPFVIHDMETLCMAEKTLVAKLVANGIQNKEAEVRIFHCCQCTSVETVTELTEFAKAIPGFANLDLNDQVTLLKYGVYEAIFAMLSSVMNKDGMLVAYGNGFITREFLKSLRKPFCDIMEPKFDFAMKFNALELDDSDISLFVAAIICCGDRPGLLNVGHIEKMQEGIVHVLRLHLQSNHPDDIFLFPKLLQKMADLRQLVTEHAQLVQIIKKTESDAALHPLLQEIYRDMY

[2] = target: T2, Peroxisome proliferator-activated receptor delta (Homo sapiens, UniProt Q03181)
T2 sequence (Q03181 whole entry): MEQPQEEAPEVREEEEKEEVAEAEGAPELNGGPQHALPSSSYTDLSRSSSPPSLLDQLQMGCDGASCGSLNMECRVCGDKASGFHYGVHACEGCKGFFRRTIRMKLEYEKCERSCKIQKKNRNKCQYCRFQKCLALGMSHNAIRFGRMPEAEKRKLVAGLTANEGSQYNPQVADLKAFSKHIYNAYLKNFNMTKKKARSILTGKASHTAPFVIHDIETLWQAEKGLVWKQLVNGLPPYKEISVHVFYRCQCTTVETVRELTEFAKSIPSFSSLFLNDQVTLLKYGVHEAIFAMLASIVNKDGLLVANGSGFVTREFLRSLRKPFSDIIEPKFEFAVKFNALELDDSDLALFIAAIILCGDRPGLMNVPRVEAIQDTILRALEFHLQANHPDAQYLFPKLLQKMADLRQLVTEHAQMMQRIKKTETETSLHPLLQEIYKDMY

[3] = target: T3, Peroxisome proliferator-activated receptor gamma (Homo sapiens, UniProt P37231); assay type: functional
T3 sequence (P37231 whole entry): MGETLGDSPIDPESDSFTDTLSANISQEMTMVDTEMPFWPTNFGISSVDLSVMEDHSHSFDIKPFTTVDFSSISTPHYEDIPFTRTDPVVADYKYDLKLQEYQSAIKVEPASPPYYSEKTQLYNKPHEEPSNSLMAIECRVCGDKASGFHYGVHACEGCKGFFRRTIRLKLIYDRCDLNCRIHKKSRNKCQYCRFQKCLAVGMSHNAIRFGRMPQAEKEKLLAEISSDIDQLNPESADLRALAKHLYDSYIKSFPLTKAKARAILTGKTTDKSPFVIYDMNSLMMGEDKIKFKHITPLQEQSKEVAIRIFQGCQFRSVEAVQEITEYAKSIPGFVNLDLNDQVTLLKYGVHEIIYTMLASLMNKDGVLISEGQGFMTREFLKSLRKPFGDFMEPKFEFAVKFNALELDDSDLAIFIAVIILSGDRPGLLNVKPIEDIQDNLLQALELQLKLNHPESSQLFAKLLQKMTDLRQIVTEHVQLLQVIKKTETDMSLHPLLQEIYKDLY

[4] = target: T4, Peroxisome proliferator-activated receptor alpha (Homo sapiens, UniProt Q07869); assay: Agonist activity at human PPARalpha by transactivation assay; assay type: functional
T4 sequence (Q07869 whole entry): T1 sequence (whole entry)

SMILES | Activity [1] | EC50 [2] | EC50 [3] | EC50 [4]
Cc1cc(SCc2sc(-c3ccc(C(F)(F)F)cc3)nc2C)ccc1OCC(=O)O | 68% | – | – | –
O=C(O)COc1ccc(Sc2cc(C#CCN3CCOCC3)nc(C#Cc3ccc(C(F)(F)F)cc3)c2)c2c1CCC2 | < 10% | 130 nM | – | –
Cc1cc(Sc2cc(C#CCN3CCOCC3)nc(C#Cc3ccc(C(F)(F)F)cc3)c2)ccc1OCC(=O)O | 50% | 50 nM | 5500 nM | 100 nM
